In PubChem BioAssay AID248 (DTP/NCI, 2004):
Inconclusive results and toxic doses are left out. Square brackets hold non-standard residues; d marks the D form. Peptide text beside a SMILES is read from it. * marks the point of attachment. ξ: configuration not given here. Hexanoyl = CCCCCC(=O)*; ξP = O=C(O)C1CCCN1

Test system: L1210 leukemia ip in BDF1 mice, survival T/C
Experiment: NCI In Vivo Anticancer Drug Screen. Data for tumor model L1210 Leukemia (intraperitoneal) in B6D2F1 (BDF1) mice
Conditions: endpoint: mean survival time, higher = longer survival
Method in brief: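 Tumor was transplanted into mice, which were then dosed with test compound or vehicle alone. Survival was recorded for each group, and the treated figure was expressed relative to the control figure.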

[1] = dose: 50.0 mg/kg/injection, schedule: Q01DX001 (ip), vehicle: Klucel (hydroxypropylcellulose) (HPC)
[2] = dose: 100.0 mg/kg/injection, schedule: Q04DX003 (ip), vehicle: saline
[3] = dose: 200.0 mg/kg/injection, schedule: Q04DX003 (ip), vehicle: saline
[4] = dose: 100.0 mg/kg/injection, schedule: Q04DX003 (ip), vehicle: other
[5] = dose: 200.0 mg/kg/injection, schedule: Q04DX003 (ip), vehicle: other
[6] = dose: 400.0 mg/kg/injection, schedule: Q04DX003 (ip), vehicle: other
[7] = dose: 100.0 mg/kg/injection, schedule: Q01DX001 (ip), vehicle: carboxymethylcellulose (CMC)

In the case of `CCOC(=O)C1C(=O)C(C(=O)Nc2ccccc2)C(=O)C(C(=O)OCC)C1c1ccc(OC)c(OC)c1OC` (stereo not drawn), the T/C (dose: 50.0 mg/kg/injection, schedule: Q01DX001 (ip), vehicle: saline with Tween-80) is reported as 96 % of control, the T/C (dose: 100.0 mg/kg/injection, schedule: Q01DX001 (ip), vehicle: saline with Tween-80) is reported as 100 % of control and the T/C (dose: 200.0 mg/kg/injection, schedule: Q01DX001 (ip), vehicle: saline with Tween-80) is reported as 94 % of control.

In the case of `CNC1=CC(=O)C1(F)F`, the T/C (dose: 12.5 mg/kg/injection, schedule: Q01DX001 (ip), vehicle: Klucel (hydroxypropylcellulose) (HPC)) is reported as 101 % of control, the T/C (dose: 25.0 mg/kg/injection, schedule: Q01DX001 (ip), vehicle: Klucel (hydroxypropylcellulose) (HPC)) is reported as 108 % of control and the T/C [1] is reported as 108 % of control.

`CCCCCC(=O)NCC(=O)N1CCCC1C(=O)O` (stereo not drawn) (Hexanoyl-Gly-[ξP]-OH) was tested, and the T/C (dose: 100.0 mg/kg/injection, schedule: Q01DX001 (ip), vehicle: saline) was 95 % of control, the T/C (dose: 200.0 mg/kg/injection, schedule: Q01DX001 (ip), vehicle: saline) was 107 % of control and the T/C (dose: 400.0 mg/kg/injection, schedule: Q01DX001 (ip), vehicle: saline) was 98 % of control.

In the case of `O=C(O)C(Cl)Cl`, the T/C [2] is reported as 98 % of control and the T/C [3] is reported as 93 % of control.

`CC(C)C1(C)NC(=O)NC1=O` (stereo not drawn) was tested, and the T/C [2] was 110 % of control, the T/C [3] was 105 % of control and the T/C (dose: 400.0 mg/kg/injection, schedule: Q04DX003 (ip), vehicle: saline) was 100 % of control.

In the case of `CCN(CC)C(=O)c1ccc([N+](=O)[O-])cc1`, the T/C (dose: 50.0 mg/kg/injection, schedule: Q01DX009 (ip), vehicle: Klucel (hydroxypropylcellulose) (HPC)) is reported as 97 % of control, the T/C (dose: 100.0 mg/kg/injection, schedule: Q01DX009 (ip), vehicle: Klucel (hydroxypropylcellulose) (HPC)) is reported as 97 % of control and the T/C (dose: 100.0 mg/kg/injection, schedule: Q04DX003 (ip), vehicle: Klucel (hydroxypropylcellulose) (HPC)) is reported as 92 % of control. For the same compound, the T/C (dose: 200.0 mg/kg/injection, schedule: Q01DX009 (ip), vehicle: Klucel (hydroxypropylcellulose) (HPC)) was 95 % of control and the T/C (dose: 200.0 mg/kg/injection, schedule: Q04DX003 (ip), vehicle: Klucel (hydroxypropylcellulose) (HPC)) was 100 % of control.

`N/C(=N\O)c1nn(C2OC(CO)C(O)C2O)c2ncnc(N)c12` (stereo not drawn) was tested, and the T/C (dose: 25.0 mg/kg/injection, schedule: Q01DX005 (ip), vehicle: saline) was 171 % of control.

With `CCc1cc(S(=O)(=O)O)c(CC)c(CC)c1CC` the T/C (dose: 100.0 mg/kg/injection, schedule: Q01DX009 (ip), vehicle: saline with Tween-80) was 97 % of control.

In the case of `ClCCN(CCCl)c1ccc(/C=C\c2ccnc3ccccc23)cc1`, the T/C (dose: 100.0 mg/kg/injection, schedule: Q01DX009 (ip), vehicle: carboxymethylcellulose (CMC)) is reported as 88 % of control, the T/C [4] is reported as 96 % of control and the T/C (dose: 200.0 mg/kg/injection, schedule: Q01DX009 (ip), vehicle: other) is reported as 90 % of control. The T/C [5] was 96 % of control and the T/C [6] was 98 % of control.

`COc1ccc2c(c1)CCC1C2=CCC2C1C(=O)CCC2(OC)OC` (stereo not drawn) was tested, and the T/C [1] was 98 % of control, the T/C (dose: 100.0 mg/kg/injection, schedule: Q01DX001 (ip), vehicle: Klucel (hydroxypropylcellulose) (HPC)) was 101 % of control and the T/C (dose: 200.0 mg/kg/injection, schedule: Q01DX001 (ip), vehicle: Klucel (hydroxypropylcellulose) (HPC)) was 96 % of control.

`O=C1CCSc2ccccc21` was tested, and the T/C (dose: 37.5 mg/kg/injection, schedule: Q01DX009 (ip), vehicle: saline) was 102 % of control, the T/C (dose: 75.0 mg/kg/injection, schedule: Q01DX009 (ip), vehicle: saline) was 111 % of control and the T/C [7] was 92 % of control. For the same compound, the T/C (dose: 100.0 mg/kg/injection, schedule: Q01DX009 (ip), vehicle: saline sonified) was 105 % of control, the T/C [4] was 96 % of control and the T/C (dose: 150.0 mg/kg/injection, schedule: Q01DX009 (ip), vehicle: saline) was 104 % of control. For the same compound, the T/C (dose: 200.0 mg/kg/injection, schedule: Q01DX001 (ip), vehicle: carboxymethylcellulose (CMC)) was 106 % of control, the T/C (dose: 200.0 mg/kg/injection, schedule: Q01DX009 (ip), vehicle: saline sonified) was 93 % of control and the T/C [5] was 96 % of control. For the same compound, the T/C (dose: 400.0 mg/kg/injection, schedule: Q01DX001 (ip), vehicle: carboxymethylcellulose (CMC)) was 111 % of control, the T/C (dose: 400.0 mg/kg/injection, schedule: Q01DX009 (ip), vehicle: saline sonified) was 97 % of control and the T/C [6] was 102 % of control.

In the case of `O=[N+]([O-])c1ccc(N/N=C/C(Br)(Br)Br)c([N+](=O)[O-])c1`, the T/C (dose: 50.0 mg/kg/injection, schedule: Q01DX001 (ip), vehicle: carboxymethylcellulose (CMC)) is reported as 99 % of control and the T/C [7] is reported as 94 % of control.
